Reference: patent US7790899B2, “Synthesis of N-(4-fluorobenzyl)-N-(1-methylpiperidin-4-yl)-N′-(4-(2-methylpropyloxy)phenylmethyl)carbamide and its tartrate salt and crystalline forms” (ACADIA Pharmaceuticals, Inc., priority 2004, dated 2010)

Assays:
[1] = Stability of the crystal forms (general findings); format: physicochemical; conditions: ambient temperatures
[2] = Stability test, exposure to humidity (open containers, 60° C., 75% relative humidity); format: physicochemical; conditions: 1 week and 2 weeks, listed as polymorph A
Description: (§1) HPLC: HPLC measurements were carried out with a HP LC1090M, Column Symmetry C18, 3.0·150 mm.
The compounds of Examples 3(b) (polymorph A), 25 (polymorph B), and 36 (polymorph C) were placed in open containers and exposed 1 week and 2 weeks at 60° C. and 75% relative humidity. In polymorph A, a water content of 2.8% was detected and the HPLC purity was 80%.

[3] = Water absorption and behaviour on exposure to relative humidity; format: physicochemical
[4] = Solubility statements in the description
[5] = Approximate solubility of Form A: saturated solutions, gravimetric determination after solvent removal; format: physicochemical
Description: Approximate solubility was measured by preparation of saturated solutions in various solvents and gravimetric determination of dissolved substance after solvent removal.

[6] = Stability test, thermal treatment (sealed ampoules, 100° C., HPLC purity); format: physicochemical; conditions: 1 week
Description: as §1
The compounds of Examples 3(b) (polymorph A), 25 (polymorph B), and 36 (polymorph C) were placed in sealed ampoules and exposed for 1 week to 100° C. […] The products where analyzed by HPLC and the purity was detected to indicate chemical stability via decomposition.

physchem = conditions: aqueous solubility

CC(C)COc1ccc(CNC(=O)N(Cc2ccc(F)cc2)C2CCN(C)CC2)cc1.CC(C)COc1ccc(CNC(=O)N(Cc2ccc(F)cc2)C2CCN(C)CC2)cc1.O=C(O)C(O)C(O)C(=O)O [Form A, N-(4-fluorobenzyl)-N-(1-methylpiperidin-4-yl)-N′-(4-(2-methylpropyloxy)phenylmethyl)carbamide hemi-tartrate]
Stability at ambient temperatures [1]: stable
HPLC purity after exposure to humidity [2]: 80%
water content after exposure to humidity [2]: 2.8%
Water uptake when exposed to humidity ([3]; above 75% relative humidity): considerable water uptake
Stability under ambient water partial pressures ([3]; relative humidities between 20% and 75%): sufficient stability
amount that can be dissolved in tetrahydrofuran ([4]; tetrahydrofuran, reflux temperature): about 200 mg/ml
Solubility in water or aqueous systems (in words) ([4]; water): well soluble
solubility ([5]; aqueous with cosolvent or surfactant or cyclodextrin, thermodynamic from solid, acetone/water (1:1), read-out: Solubility): > 200 mg/mL
solubility ([5]; ethanol): >10 mg/mL
solubility ([5]; organic solvent or mixture, thermodynamic from solid, 1,4-dioxane, read-out: Solubility): ~2 mg/mL
solubility ([5]; organic solvent or mixture, thermodynamic from solid, 2-propanol, read-out: Solubility): ~1 mg/mL
solubility ([5]; organic solvent or mixture, thermodynamic from solid, 2-propanol/water (9:1), read-out: Solubility): < 1 mg/mL
solubility ([5]; organic solvent or mixture, thermodynamic from solid, acetone, read-out: Solubility): ~2 mg/mL
solubility ([5]; organic solvent or mixture, thermodynamic from solid, acetonitrile, read-out: Solubility): ~2 mg/mL
solubility ([5]; organic solvent or mixture, thermodynamic from solid, dichloromethane, read-out: Solubility): > 30 mg/mL
solubility ([5]; organic solvent or mixture, thermodynamic from solid, dimethylsulfoxide, read-out: Solubility): > 200 mg/mL
solubility ([5]; organic solvent or mixture, thermodynamic from solid, ethyl acetate, read-out: Solubility): < 1 mg/mL
solubility ([5]; organic solvent or mixture, thermodynamic from solid, methanol, read-out: Solubility): > 100 mg/mL
solubility ([5]; organic solvent or mixture, thermodynamic from solid, methyl ethyl ketone, read-out: Solubility): < 1 mg/mL
solubility ([5]; organic solvent or mixture, thermodynamic from solid, t-butyl methyl ether, read-out: Solubility): < 1 mg/mL
solubility ([5]; organic solvent or mixture, thermodynamic from solid, toluene, read-out: Solubility): < 1 mg/mL
solubility ([5]; tetrahydrofuran): >5 mg/mL
solubility ([5]; thermodynamic from solid, water, read-out: Solubility): > 300 mg/mL
State of the material after thermal treatment [6]: formed a deliquescent compact material
HPLC purity after thermal treatment ([6]; listed as polymorph A): 25.9%

CC(C)COc1ccc(CNC(=O)N(Cc2ccc(F)cc2)C2CCN(C)CC2)cc1 [Form E, N-(4-fluorobenzyl)-N-(1-methylpiperidin-4-yl)-N′-(4-(2-methylpropyloxy)phenylmethyl)carbamide hemi-tartrate]
solubility (physchem): > 200 mg/mL
